How the values were obtained:
hRARα LBD = target: T1, hRARα LBD (Homo sapiens, UniProt P10276); assay: non-denaturing ESI-MS
T1 construct: gene RARA
T1 sequence (P10276 153-421): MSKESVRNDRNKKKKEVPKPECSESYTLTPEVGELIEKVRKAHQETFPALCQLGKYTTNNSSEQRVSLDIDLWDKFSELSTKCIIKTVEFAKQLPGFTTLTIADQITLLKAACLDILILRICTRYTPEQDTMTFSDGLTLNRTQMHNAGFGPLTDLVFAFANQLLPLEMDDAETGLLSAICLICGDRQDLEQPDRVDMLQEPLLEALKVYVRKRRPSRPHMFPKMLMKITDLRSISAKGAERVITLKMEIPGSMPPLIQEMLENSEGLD

hRARβ LBD = target: T2, hRARβ LBD (Homo sapiens, UniProt P10826); assay: non-denaturing ESI-MS; assay type: binding
T2 construct: gene RARB; LBD (169–414), N-terminal His-tag
T2 sequence (P10826 169-414): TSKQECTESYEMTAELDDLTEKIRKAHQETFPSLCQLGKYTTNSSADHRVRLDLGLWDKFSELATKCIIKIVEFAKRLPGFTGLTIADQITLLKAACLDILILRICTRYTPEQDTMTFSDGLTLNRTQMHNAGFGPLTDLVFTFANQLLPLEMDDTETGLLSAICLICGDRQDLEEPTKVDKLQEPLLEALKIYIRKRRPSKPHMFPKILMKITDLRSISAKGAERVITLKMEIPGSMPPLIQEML

| SMILES | non-denaturing ESI-MS (hRARα LBD) | non-denaturing ESI-MS (hRARβ LBD) |
| --- | --- | --- |
| CC1=C(/C=C/C(C)=C\C=C\C(C)=C\C(=O)O)C(C)(C)CCC1 [9CRA, 9-cis-retinoic acid] | percent of bound/free protein for hRAR isotypes for R- and S-9CDHRA enantiomers and 9CRA |  |
| CC1=C(/C=C/C(C)=C\C=C\[C@H](C)CC(=O)O)C(C)(C)CCC1 [R-9CDHRA] | revealed that 9CDHRA (R and S) bind to all RAR LBD isotypes | revealed that 9CDHRA (R and S) bind to all RAR LBD isotypes |
| CC1=C(/C=C/C(C)=C\C=C\[C@@H](C)CC(=O)O)C(C)(C)CCC1 [S-9CDHRA] | revealed that 9CDHRA (R and S) bind to all RAR LBD isotypes | revealed that 9CDHRA (R and S) bind to all RAR LBD isotypes |

— paper PMC4451509, “9-cis-13,14-Dihydroretinoic Acid Is an Endogenous Retinoid Acting as RXR Ligand in Mice” (PLoS Genetics, 2015)
